In the supplement of paper PMC10307832:

Legend:
Test in all cases: relative viability (nuclei count vs DMSO), 5 days (fraction); higher = more cells survive
NCI-H838 = details: first compound 1 µM
Outline: (§1)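 Relative viability was taken as the ratio of nuclei in treated wells to nuclei in vehicle wells. Lung cancer cell lines in 1536-well plates received compounds by pin tool one day after seeding, either one drug alone or a fixed anchor-drug dose plus five library-drug doses (not always all listed) in √10 steps. Nuclei were counted on 4× images after 5 days of treatment, and values are medians of duplicate plates.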

UMC-11 = tested on: UMC-11
Outline: as §1

NCI-H2009 = tested on: NCI-H2009
Outline: as §1

HOP-62 = tested on: HOP-62
Outline: as §1

NCI-H1755 = tested on: NCI-H1755
Outline: as §1

NCI-H2347 = tested on: NCI-H2347
Outline: as §1

NCI-H522 = tested on: NCI-H522
Outline: as §1

SK-MES-1 = tested on: SK-MES-1
Outline: as §1

NCI-H1793 = tested on: NCI-H1793
Outline: as §1

COR-L 105 = tested on: COR-L 105
Outline: as §1

NCI-H2170 = tested on: NCI-H2170
Outline: as §1

NCI-H647 = tested on: NCI-H647
Outline: as §1

With O=c1cc(N2CCOCC2)oc2c(-c3cccc4c3sc3ccccc34)cccc12 + CCNC(=O)c1noc(-c2cc(C(C)C)c(O)cc2O)c1-c1ccc(CN2CCOCC2)cc1 [Luminespib] (partner 0.01 µM) the relative viability (NCI-H838) was 0.287, the relative viability (UMC-11; first compound 0.01 µM) was 0.971 and the relative viability (UMC-11; first compound 0.03162 µM) was 0.997. The relative viability (UMC-11; first compound 0.1 µM) was 1.12, the relative viability (UMC-11; first compound 0.3162 µM) was 0.986 and the relative viability (UMC-11; first compound 1 µM) was 0.982. For the same compound, the relative viability (NCI-H2009; first compound 0.01 µM) was 0.931, the relative viability (NCI-H2009; first compound 0.03162 µM) was 0.899 and the relative viability (NCI-H2009; first compound 0.1 µM) was 0.995. For the same compound, the relative viability (NCI-H2009; first compound 0.3162 µM) was 0.962, the relative viability (NCI-H2009; first compound 1 µM) was 0.97 and the relative viability (HOP-62; first compound 0.01 µM) was 1.05. The relative viability (HOP-62; first compound 0.03162 µM) was 0.822, the relative viability (HOP-62; first compound 0.1 µM) was 0.842 and the relative viability (HOP-62; first compound 0.3162 µM) was 1.03. The relative viability (HOP-62; first compound 1 µM) was 0.974, the relative viability (NCI-H1755; first compound 0.01 µM) was 0.501 and the relative viability (NCI-H1755; first compound 0.03162 µM) was 0.265. It also gave a relative viability (NCI-H1755; first compound 0.1 µM) of 0.496, a relative viability (NCI-H1755; first compound 0.3162 µM) of 0.419 and a relative viability (NCI-H1755; first compound 1 µM) of 0.563. It also gave a relative viability (NCI-H2347; first compound 0.01 µM) of 0.571, a relative viability (NCI-H2347; first compound 0.03162 µM) of 0.383 and a relative viability (NCI-H2347; first compound 0.1 µM) of 0.641. For the same compound, the relative viability (NCI-H2347; first compound 0.3162 µM) was 0.409, the relative viability (NCI-H2347; first compound 1 µM) was 0.323 and the relative viability (NCI-H522; first compound 0.01 µM) was 1.23. The relative viability (NCI-H522; first compound 0.03162 µM) was 1.37, the relative viability (NCI-H522; first compound 0.1 µM) was 0.915 and the relative viability (NCI-H522; first compound 0.3162 µM) was 1.06. For the same compound, the relative viability (NCI-H522; first compound 1 µM) was 1.14, the relative viability (SK-MES-1; first compound 0.01 µM) was 0.712 and the relative viability (SK-MES-1; first compound 0.03162 µM) was 0.767. For the same compound, the relative viability (SK-MES-1; first compound 0.1 µM) was 0.736, the relative viability (SK-MES-1; first compound 0.3162 µM) was 0.661 and the relative viability (SK-MES-1; first compound 1 µM) was 0.741. For the same compound, the relative viability (NCI-H1793; first compound 0.01 µM) was 0.159, the relative viability (NCI-H1793; first compound 0.1 µM) was 0.173 and the relative viability (NCI-H1793; first compound 0.3162 µM) was 0.134. It also gave a relative viability (NCI-H1793; first compound 1 µM) of 0.18, a relative viability (COR-L 105; first compound 0.01 µM) of 0.738 and a relative viability (COR-L 105; first compound 0.03162 µM) of 0.739. The relative viability (COR-L 105; first compound 0.1 µM) was 0.758, the relative viability (COR-L 105; first compound 0.3162 µM) was 0.754 and the relative viability (COR-L 105; first compound 1 µM) was 0.603. It also gave a relative viability (NCI-H2170; first compound 0.01 µM) of 0.445, a relative viability (NCI-H2170; first compound 0.03162 µM) of 0.668 and a relative viability (NCI-H2170; first compound 0.1 µM) of 0.654. The relative viability (NCI-H2170; first compound 0.3162 µM) was 0.548, the relative viability (NCI-H2170; first compound 1 µM) was 0.744 and the relative viability (NCI-H647; first compound 0.01 µM) was 0.132. For the same compound, the relative viability (NCI-H647; first compound 0.03162 µM) was 0.115, the relative viability (NCI-H647; first compound 0.1 µM) was 0.101 and the relative viability (NCI-H647; first compound 0.3162 µM) was 0.259. It also gave a relative viability (NCI-H647; first compound 1 µM) of 0.209.
